Reference: patent US20200113852A1, “METHODS OF PATIENT SELECTION AND TREATING TRXR- OR PRDX-OVEREXPRESSED CANCERS” (TRIACT THERAPEUTICS, INC., priority 2017, published 2020)
Where two headings read alike, the source gives them in different places.

Tests used:
[1] = Phase I clinical trial GBM, pharmacokinetics; format: in vivo, human; conditions: human, geometric mean±SD, plasma, read-out: Cmax
Source text: No cytochrome P450-inducing anticonvulsants. However, Gliadel was permitted.
Dosing is IV 2×/week continuous.

HCT116 cells [2] = experiment: Protein modification by Iniparib-biotin in cells (streptavidin-HRP blot, avidin pull-down LC-MS/MS); format: cell-based, human
Method: MDA-MB-453 and HCT116 cells were first pre-treated or not for 48 h with 1 mM BSO. Afterwards cells were incubated in serum-containing conditioned medium with increasing concentrations of Iniparib-biotin derivative for up to 4 hours.
Membranes were blotted with either Streptavidin-HRP (GE Healthcare), monoclonal antibody against GAPDH (Santa Cruz Biotechnology), polyclonal antibody raised against GSTP1 (Santa Cruz Biotechnology) or with MitoProfile® Total OXPHOS human antibody cocktail (Abcam). Detection of reactive bands was performed by enhanced chemiluminescence (West DURA substrate, Pierce, Thermo scientific).
BSO pretreated HCT116 cells were incubated for 4 h with 100 μM Iniparib-biotin. Then clarified octyl-glucoside lysates were combined with monomeric avidin-agarose and mixed overnight at 4° C. […] Final wash was performed with 0.15% octyl-glucoside, 50 mM NaCl, 10 mM Tris-HCl, pH 7.5 prior to Iniparib-biotin modified proteins' elution in 0.1 M glycine, pH 2.8, 20 min at 20° C. After pH adjustment to 8.5 by Ammonium Bicarbonate addition (50 mM final), eluted proteins were reduced (10 mM DTT, 30 min at 56° C.), alkylated (30 mM iodoacetamide, 30 min at 20° C.) and digested with trypsin (10 μg, overnight at 37° C.). Tryptic Iniparib-biotin modified peptides were further purified by monomeric avidin pull-down as described above except that the buffer used was 50 mM NaCl, 10 mM Tris-HCl, pH 7.5. After elution in 0.1 M glycine, pH 2.8, 20 min at 20° C., enriched Iniparib-biotin modified peptides were analyzed by LC-MS/MS. LC-MS/MS experiments were performed on a NanoAcquity UPLC (Waters) coupled to a hybrid LTQ Orbitrap Velos mass spectrometer (Thermo Fisher Scientific) equipped with a nanoelectrospray source. Tryptic digests were loaded onto an UPLC Trap column (Symmetry C18, 5 μm, 180 μm×20 mm, Waters) and washed with 0.2% formic acid at 20 μL/min for 5 min. […] The exact parent mass is the ^12C isotope ion mass of the most intense isotopic pattern detected on the high resolution Orbitrap MS parallel scan and included in the MS/MS selection window.

[3] = tested on: cytosol and mitochondria of HCT116 cells; experiment: Subcellular fractionation: Iniparib-biotin labeling of cytosol and mitochondria; format: cell-based, human
Method: Cells were homogenized in an ice-cold buffer containing 10 mM Tris-HCl, pH 7.5, protease and phosphatase inhibitors, and 250 mM sucrose in the case of mitochondria preparation, using a glass dounce tissue grinder (30 strokes). After centrifugation at 1,000×g for 5 min at 4° C., homogenates supernatants were collected. For cytosol preparation the 1000×g supernatants were submitted to differential centrifugation in Tris-HCl buffer: a first centrifugation was carried out at 22,000×g for 20 min and the resulting supernatants were further centrifuged at 100,000×g for 60 min. The final supernatants were referred to as the cytosolic fractions.
FIG. 11A and FIG. 11B show HCT116 cells were pre-treated or not for 48 h with 1 mM BSO. Thereafter Iniparib-biotin at 100 μM was added for 4 h. Cell homogenates were then processed for cytosol preparation (FIG. 11A) or mitochondria immuno-purification (FIG. 11B).
Cell homogenates were then processed for cytosol preparation or mitochondria immuno-purification. […]

HCT116 cells [4] = experiment: Fluorescence microscopy, subcellular localization of Iniparib-biotin targets; format: cell-based, human; conditions: HCT116, 30 min after adding Iniparib-biotin
Method: HCT116 cells were platted on polylysine D coated thin glass bottom microscope chambers (Ibidi). […] For subcellular localization experiments mitochondria were stained with 100 nM Mitotracker Red CMX (Molecular probes) added for 10 min. This stain was performed before fixation (Paraformaldehyde 3.7% in PBS pH 7.4). Biotin was developed, after Triton X100 (0.3% in PBS, 15 min) permeabilization and saturation (1% BSA+1% gelatin in PBS: saturation buffer), with Alexa-488 streptavidin (Molecular Probes) conjugate (1 μg/ml in saturation buffer). Nuclei were stained with Hoechst (Molecular Probes) and samples mounted in anti-fading solution (Ibidi).
Cells were imaged with a PLAN NeoFluar 40× (NA 1.3) or 100×, (NA 1.46) oil objectives on a LSM510 (Zeiss) confocal microscope. Laser lines, filters and dichroic mirrors were selected for maximal separation of the green (Ex./Em. 488/530 nm) and the red fluorescence (Ex./Em. 543/LP 585 nm). Nuclei were observed (Ex./Em. 405/460 nm). For co-localization stacks of images separated by 400 nm along z-axis were acquired. Post-capture processing was done using LSM510 software, and Photoshop (Adobe) was used to make linear adjustments to brightness and contrast.

## NC(=O)c1ccc(I)c([N+](=O)[O-])c1 [Iniparib, 4-iodo-3-nitrobenzamide]
[1]; 5.1 mg/kg IV 2×/week
  Cmax: 642 ± 315 ng/mL
[1]; 6.1 mg/kg IV 2×/week
  Cmax: 928 ± 397 ng/mL
[1]; 6.8 mg/kg IV 2×/week
  Cmax: 1020 ng/mL
[1]; 8.0 mg/kg IV 2×/week
  Cmax: 3690 ng/mL
[1]; 8.6 mg/kg IV 2×/week
  Cmax: 1520 ng/mL
[1]; 9.5 mg/kg IV 2×/week
  Cmax: 2140 ng/mL

## O=C(CCCC[C@@H]1SC[C@@H]2NC(=O)N[C@@H]21)NCCNC(=O)c1ccc(I)c([N+](=O)[O-])c1 [Iniparib-biotin, 4-iodo-3-nitro-N-(2-(5-((3 aS,4S,6aR)-2-oxohexahydro-1H-thieno[3,4-d]imidazol-4-yl)pentanamido)ethyl)benzamide]
HCT116 cells [2]; BSO pretreated HCT116, 100 μM 4 h, MS/MS qualitative analysis
  cellular proteins bearing Iniparib adducts: more than 200 cellular proteins
HCT116 cells [2]; HCT116 cells depleted of GSH, up to 100 μM, up to 4 h
  protein labeling with Iniparib-biotin: strong protein labeling
HCT116 cells [2]; HCT116 cells not depleted of GSH
  protein modifications by Iniparib-biotin: barely detectable
[3]; 30 μM Iniparib-biotin, with or without NADH/NADPH
  in vitro labeling of isolated cytosolic fraction: mainly when NADPH was added
[3]; fractions from Iniparib-biotin treated HCT116 cells
  protein targets in isolated cytosol and mitochondria: present in both cell compartments
HCT116 cells [4]
  subcellular localization of labeled proteins: cellular proteins were labeled in the cytosol as well as in the nucleus and cytoplasmic structures
